Drawing on ChEMBL document CHEMBL1811761, “Recent advances in drug discovery of benzothiadiazine and related analogs as HCV NS5B polymerase inhibitors” (Bioorg Med Chem, 2011), this text covers EC50 and Activity for 3 compounds.

In series [1] the test system is Hepatitis C virus. The experiment in a line: Antiviral activity against HCV 1b N infected in human HuH7 cells assessed as inhibition of viral RNA replication after 3 days by RT-PCR analysis. Type of series: functional, organism-based, Hepacivirus hominis. Particulars: genotype 1b strain N, Huh-7, 72 h.
For series [2], the system named is Huh-7. The series can be described thus: Cytotoxicity against human HuH7 cells up to […]. Format: cell-based.

SMILES strings stand for the structures.

Broadly, the EC50 is the concentration needed to bring the measured effect to its halfway point. As to `O=c1c(C2=NS(=O)(=O)c3ccccc3N2)c(O)c2ccccc2n1NC1CC1`, in series [1], the EC50 is 100 nM.

Take `NC(=O)COc1ccc2c(c1)S(=O)(=O)N=C(c1c(O)c3ccccc3n(NC3CCC3)c1=O)N2`: the EC50 in series [1] worked out at 70 nM. Also, the Activity entry in series [2] is reported as “Non-toxic”.

For `O=c1c(C2=NS(=O)(=O)c3ccccc3N2)c(O)c2ccccc2n1NC1CCC1`, in series [1], the EC50 turned out to be 100 nM.
